US6355799B1, “Substituted benzene compounds, process for their preparation, and herbicidal and defoliant compositions containing them” (ISK Americas Incorporated, priority 1997, dated 2002)

Key:
Type in all cases: in vivo
[1] = system: large crabgrass (Digitaria sanguinalis, DIGSA); assay: Post-emerge test, greenhouse herbicide activity screening; settings: post-emerge, 14 days after application, rating scale 0-100
From the text: (§1) A standard greenhouse herbicide activity screening system was used to evaluate the herbicidal efficacy and crop safety of these test compounds. Seven broadleaf weed species including redroot pigweed (Amaranthus retroflexus, AMARE, velvetleaf (Abutilon theophrasti, ABUTH), sicklepod (Cassia obtusifolia, CASOB), ivyleaf morningglory (Ipomoea hederacea, IPOHE), lambsquarters (Chenopodium album, CHEAL), common ragweed (Ambrosia artemisizfolia L., AMBEL), and cocklebur (Xanthium strumarium, XANST) were used as test species. Four grass weed species including green foxtail (Setaria viridis, SETVI), barnyardgrass (Echinochloa crus-galli, ECHCG), johnsongrass (Sorghum halepense, SORHA), and large crabgrass (Digitaria sanguinalis, DIGSA) were also used. In addition, three crop species, field corn (Zea mays L., var. Dekalb 535, CORN), soybean (Glycine max L., var. Pella 86, SOY), and is upland rice (Oryza sp., var. Tebonnet, RICE) were included.
(§2) All plants were grown in 10 cm square plastic pots which were filled with a sandy loam soil mix. For pre-emerge tests, seeds were planted one day prior to application of the test compounds. For post-emerge tests, seeds were planted 8-21 days prior to the test to allow emergence and good foliage development prior to application of the test substances. At the time of the post-emerge application, plants of all species were usually at the 2-3 leaf stage of development.
(§3) All test compounds Were dissolved in acetone and applied to the test units in a volume of 187 l /ha. Test materials were applied at rates ranging from 15 g ai/ha to 1000 g ai/ha using a track sprayer equipped with a TJ8001E even flow flat fan spray nozzle. Plants were arranged on a shelf so that the top of the canopy (post-emerge) or top of the soil surface (pre-emerge) was 40-45 cm below the nozzle. Pressurized air was used to force the test solution through the nozzle as it was mechanically advanced (via electrically driven chain drive) over the top of all test plants/pots. This application simulates a typical commercial field herbicide application.
(§4) In the post-emerge test, a commercial non-ionic surfactant was also included (0.25% v/v) to enhance wetting of the leaf surfaces of target plants. Immediately after application, test units of the pre-emerge applications were watered at the soil surface to incorporate the test materials. Subsequently, these test units were bottom-watered. Post-emerge test units were always bottom-watered.
(§5) At 14 days after application of the test materials, phytotoxicity ratings were recorded. A rating scale of 0-100 was used as previously described in Research Methods in Weed Science, 2nd edition, B. Truelove, Ed., Southern Weed Science Society, Auburn University, Auburn, Ala. 1977. Briefly, “0” corresponds to no damage and “100” corresponds to complete death of all plants in the test unit. This scale was used both to determine efficacy against weed species and damage to crop species. Herbicide activity data for various compounds of this invention, which are shown by compound No. in Tables 1-8, are shown in Tables 11 and 12.

[2] = system: ivyleaf morningglory (Ipomoea hederacea, IPOHE); assay: as above; settings: post-emerge, 14 days after application, rating scale 0-100
From the text: as §1, §2, §3, §4, §5

[3] = system: redroot pigweed (Amaranthus retroflexus, AMARE); assay: as above; settings: post-emerge, 14 days after application, rating scale 0-100
From the text: as §1, §2, §3, §4, §5

[4] = system: lambsquarters (Chenopodium album, CHEAL); assay: as above; settings: post-emerge, 14 days after application, rating scale 0-100
From the text: as §1, §2, §3, §4, §5

[5] = system: velvetleaf (Abutilon theophrasti, ABUTH); assay: as above; settings: post-emerge, 14 days after application, rating scale 0-100
From the text: as §1, §2, §3, §4, §5

[6] = system: green foxtail (Setaria viridis, SETVI); assay: as above; settings: post-emerge, 14 days after application, rating scale 0-100
From the text: as §1, §2, §3, §4, §5

[7] = system: sicklepod (Cassia obtusifolia, CASOB); assay: as above; settings: post-emerge, 14 days after application, rating scale 0-100
From the text: as §1, §2, §3, §4, §5

[8] = system: barnyardgrass (Echinochloa crus-galli, ECHCG); assay: as above; settings: post-emerge, 14 days after application, rating scale 0-100
From the text: as §1, §2, §3, §4, §5

[9] = system: field corn (Zea mays L., var. Dekalb 535, CORN); assay: Post-emerge test, crop safety; settings: post-emerge, 14 days after application, rating scale 0-100
How it was run: (§6)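 Compounds in acetone were track-sprayed at 15-1000 g ai/ha (187 l/ha) on sandy loam pots: pre-emerge one day after seeding, post-emerge at 2-3 leaf stage with 0.25% v/v non-ionic surfactant. Phytotoxicity was rated 14 days later on a 0 (no damage) to 100 (complete death) scale.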

[10] = system: upland rice (Oryza sp., var. Tebonnet, RICE); assay: Post-emerge test, crop safety; settings: post-emerge, 14 days after application, rating scale 0-100
How it was run: as §6

[11] = system: large crabgrass (Digitaria sanguinalis, DIGSA); assay: Pre-emerge test, greenhouse herbicide activity screening; settings: pre-emerge, 14 days after application, scale 0-100
From the text: as §1, §2, §3, §4, §5

[12] = system: ivyleaf morningglory (Ipomoea hederacea, IPOHE); assay: as above; settings: pre-emerge, 14 days after application, scale 0-100
From the text: as §1, §2, §3, §4, §5

[13] = system: lambsquarters (Chenopodium album, CHEAL); assay: as above; settings: pre-emerge, 14 days after application, scale 0-100
From the text: as §1, §2, §3, §4, §5

[14] = system: velvetleaf (Abutilon theophrasti, ABUTH); assay: as above; settings: pre-emerge, 14 days after application, scale 0-100
From the text: as §1, §2, §3, §4, §5

[15] = system: green foxtail (Setaria viridis, SETVI); assay: as above; settings: pre-emerge, 14 days after application, scale 0-100
From the text: as §1, §2, §3, §4, §5

[16] = system: sicklepod (Cassia obtusifolia, CASOB); assay: as above; settings: pre-emerge, 14 days after application, scale 0-100
From the text: as §1, §2, §3, §4, §5

[17] = system: barnyardgrass (Echinochloa crus-galli, ECHCG); assay: as above; settings: pre-emerge, 14 days after application, scale 0-100
From the text: as §1, §2, §3, §4, §5

[18] = system: field corn (Zea mays L., var. Dekalb 535, CORN); assay: Pre-emerge test, crop safety; settings: pre-emerge, 14 days after application, scale 0-100
How it was run: as §6

[19] = system: upland rice (Oryza sp., var. Tebonnet, RICE); assay: Pre-emerge test, crop safety; settings: pre-emerge, 14 days after application, scale 0-100
How it was run: as §6

[20] = system: redroot pigweed (Amaranthus retroflexus, AMARE); assay: Pre-emerge test, greenhouse herbicide activity screening; settings: pre-emerge, 14 days after application, scale 0-100
How it was run: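 Plants grown in 10 cm pots of sandy loam mix received acetone-dissolved compounds through a moving flat-fan nozzle. Doses ranged from 15 to 1000 g ai/ha. Pre-emerge pots were seeded one day earlier, post-emerge pots 8–21 days earlier. Fourteen days on, each pot was graded 0–100 for damage.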

COc1c(Cl)cc(F)c(-n2c(=O)cc(C(F)(F)F)n(C)c2=O)c1NC(=O)C(C#N)=Cc1ccccc1 [2-136]
5: RICE phytotoxicity rating (crop damage) ([10]; 63 g ai/ha)
20: DIGSA phytotoxicity rating ([1]; 250 g ai/ha) | SETVI phytotoxicity rating ([6]; 63 g ai/ha)
30: SETVI phytotoxicity rating ([6]; 250 g ai/ha)
100: IPOHE phytotoxicity rating ([2]; 250 g ai/ha) | AMARE phytotoxicity rating ([3]; 63 g ai/ha) | AMARE phytotoxicity rating ([3]; 250 g ai/ha) | CHEAL phytotoxicity rating ([4]; 250 g ai/ha) | ABUTH phytotoxicity rating ([5]; 63 g ai/ha) | ABUTH phytotoxicity rating ([5]; 250 g ai/ha) | CASOB phytotoxicity rating ([7]; 250 g ai/ha) | phytotoxicity rating IPOHE ([12]; 250 g ai/ha) | phytotoxicity rating CHEAL ([13]; 250 g ai/ha) | phytotoxicity rating ABUTH ([14]; 250 g ai/ha)
95: CHEAL phytotoxicity rating ([4]; 63 g ai/ha)
40: phytotoxicity rating SETVI ([15]; 250 g ai/ha) | phytotoxicity rating CASOB ([16]; 250 g ai/ha) | phytotoxicity rating AMARE ([20]; 63 g ai/ha)
90: phytotoxicity rating CHEAL ([13]; 63 g ai/ha) | phytotoxicity rating AMARE ([20]; 250 g ai/ha)
15: CORN phytotoxicity rating (crop damage) ([9]; 63 g ai/ha)
10: ECHCG phytotoxicity rating ([8]; 250 g ai/ha) | CORN phytotoxicity rating (crop damage) ([9]; 250 g ai/ha) | RICE phytotoxicity rating (crop damage) ([10]; 250 g ai/ha) | phytotoxicity rating DIGSA ([11]; 250 g ai/ha) | phytotoxicity rating SETVI ([15]; 63 g ai/ha) | phytotoxicity rating RICE (crop damage) ([19]; 250 g ai/ha)
60: CASOB phytotoxicity rating ([7]; 63 g ai/ha)
80: IPOHE phytotoxicity rating ([2]; 63 g ai/ha) | phytotoxicity rating ABUTH ([14]; 63 g ai/ha)
0: DIGSA phytotoxicity rating ([1]; 63 g ai/ha) | ECHCG phytotoxicity rating ([8]; 63 g ai/ha) | phytotoxicity rating DIGSA ([11]; 63 g ai/ha) | phytotoxicity rating IPOHE ([12]; 63 g ai/ha) | phytotoxicity rating CASOB ([16]; 63 g ai/ha) | phytotoxicity rating ECHCG ([17]; 63 g ai/ha) | phytotoxicity rating ECHCG ([17]; 250 g ai/ha) | phytotoxicity rating CORN (crop damage) ([18]; 63 g ai/ha) | phytotoxicity rating CORN (crop damage) ([18]; 250 g ai/ha) | phytotoxicity rating RICE (crop damage) ([19]; 63 g ai/ha)

C=Cc1ccc(C(=O)N(C(=O)c2ccc(C=C)cc2)c2c(OC)c(Br)cc(F)c2-n2c(=O)cc(C(F)(F)F)n(C)c2=O)cc1 [2-183]
10: AMARE phytotoxicity rating ([3]; 250 g ai/ha) | phytotoxicity rating ABUTH ([14]; 250 g ai/ha)
40: IPOHE phytotoxicity rating ([2]; 250 g ai/ha) | phytotoxicity rating CHEAL ([13]; 250 g ai/ha)
80: CHEAL phytotoxicity rating ([4]; 250 g ai/ha)
30: phytotoxicity rating AMARE ([20]; 250 g ai/ha)
50: ABUTH phytotoxicity rating ([5]; 250 g ai/ha)
0: DIGSA phytotoxicity rating ([1]; 63 g ai/ha) | DIGSA phytotoxicity rating ([1]; 250 g ai/ha) | IPOHE phytotoxicity rating ([2]; 63 g ai/ha) | AMARE phytotoxicity rating ([3]; 63 g ai/ha) | CHEAL phytotoxicity rating ([4]; 63 g ai/ha) | ABUTH phytotoxicity rating ([5]; 63 g ai/ha) | SETVI phytotoxicity rating ([6]; 63 g ai/ha) | SETVI phytotoxicity rating ([6]; 250 g ai/ha) | CASOB phytotoxicity rating ([7]; 63 g ai/ha) | CASOB phytotoxicity rating ([7]; 250 g ai/ha) | ECHCG phytotoxicity rating ([8]; 63 g ai/ha) | ECHCG phytotoxicity rating ([8]; 250 g ai/ha) | CORN phytotoxicity rating (crop damage) ([9]; 63 g ai/ha) | CORN phytotoxicity rating (crop damage) ([9]; 250 g ai/ha) | RICE phytotoxicity rating (crop damage) ([10]; 63 g ai/ha) | RICE phytotoxicity rating (crop damage) ([10]; 250 g ai/ha) | phytotoxicity rating DIGSA ([11]; 63 g ai/ha) | phytotoxicity rating DIGSA ([11]; 250 g ai/ha) | phytotoxicity rating IPOHE ([12]; 63 g ai/ha) | phytotoxicity rating IPOHE ([12]; 250 g ai/ha) | phytotoxicity rating CHEAL ([13]; 63 g ai/ha) | phytotoxicity rating ABUTH ([14]; 63 g ai/ha) | phytotoxicity rating SETVI ([15]; 63 g ai/ha) | phytotoxicity rating SETVI ([15]; 250 g ai/ha) | phytotoxicity rating CASOB ([16]; 63 g ai/ha) | phytotoxicity rating CASOB ([16]; 250 g ai/ha) | phytotoxicity rating ECHCG ([17]; 63 g ai/ha) | phytotoxicity rating ECHCG ([17]; 250 g ai/ha) | phytotoxicity rating CORN (crop damage) ([18]; 63 g ai/ha) | phytotoxicity rating CORN (crop damage) ([18]; 250 g ai/ha) | phytotoxicity rating RICE (crop damage) ([19]; 63 g ai/ha) | phytotoxicity rating RICE (crop damage) ([19]; 250 g ai/ha) | phytotoxicity rating AMARE ([20]; 63 g ai/ha)
